Among the data in patent US11130769B2 (Prelude Therapeutics Incorporated, priority 2018, dated 2021) are IC50 and Ki values, retold here.

SMILES strings stand for the structures. Read-outs that look alike come from different tables or passages of the source. Some results are limits rather than exact numbers.

The subject of one assay is H929 cells. As to the kind of experiment: Cell viability assay (H929 10 FBS). It is filed as cell-based. The following applies: Homo sapiens, NCI-H929, 24 hours, read-out: H929_10FBS IC50. Here is the method: Cell Viability Assay (H929 10 FBS)
Dispense 10 μL aliquot of prepared H929 cells (1:1 ratio of cells:Trypan Blue (#1450013, Bio-Rad)) onto cell counting slide (#145-0011, Bio-Rad) and obtain cell density and cell viability using cell counter (TC20, Bio-Rad). Remove appropriate volume of resuspended cells from culture flask to accommodate 4000 cells/well @ 10 μL/well. Transfer H929 cells to 50 mL conical (#430290, Corning). Spin down at 1000 rpm for 5 min using tabletop centrifuge (SPINCHRON 15, Beckman). Discard supernatant and resuspend cell pellet in modified RPMI 1640 (#10-040-CV, Corning) cell culture media containing 10% FBS (F2422-500 ML, Sigma), sodium pyruvate (100 mM) (#25-000-CL, Corning), HEPES buffer (1 M) (#25-060-CL, Corning) and glucose (200 g/L) (A24940-01, Gibco) to a cell density of 400,000 cells/mL. Dispense 10 μL of resuspended H929 cells per well in 384-well small volume TC treated plate (#784080, Greiner Bio-one) using standard cassette (#50950372, Thermo Scientific) on Multi-drop Combi (#5840310, Thermo Scientific) in laminar flow cabinet. Dispense compounds onto plates using digital liquid dispenser (D300E, Tecan). Incubate plates in humidified tissue culture incubator @ 37° C. for 24 hours. Add 10 μL of prepared CellTiTer-Glo® detection buffer (G7570, Promega) or ATPlite 1 Step detection reagent (#6016731, Perkin Elmer) to each well of 384-well plate using small tube cassette (#24073295, Thermo Scientific) on Combi multi drop, incubate @ RT for 30-60 min. Read plates with microplate reader (PheraStar, BMG Labtech) using 384 well luminescence mode.

The target in another assay is MCL-1 (Homo sapiens (Human), UniProt Q07820). As to the kind of experiment: Cell free Mcl-1:Bim affinity assay (fluorescence polarization competition). It is filed as binding. The settings on record: 15 nM MCL-1, 5 nM FITC-Bim, 1 hour at room temperature, read-out: BIM_Ki. How it is done:
The binding affinity of each compound was measured via a fluorescence polarization competition assay, in which the compound competes for the same binding site with the ligand, and thus leads to a dose-dependent anisotropy reduction. The tracer ligand utilized was a fluorescein isothiocyanate labelled peptide (FITC-[…]) derived from Bim (GenScript).
The assay was carried out in black half-area 96-well NBS plate (Corning), containing 15 nM of MCL-1 (BPS Bioscience), 5 nM of FITC-Bim and 3-fold serial diluted test compounds in a total volume of 50 μL of assay buffer (20 mM HEPES, 50 mM NaCl, 0.002% Tween 20, 1 mM TCEP, and 1% DMSO). The reaction plate was incubated for 1 hour at room temperature. The change of anisotropy is measured with an Envision multimode plate reader (PerkinElmer) at emission wavelength 535 nm. Fluorescence polarization was calculated in mP unit and the percentage inhibition was calculated by % inhibition=100×(mPDMSO−mP)/(mPDMSO−mPPC), in which mPDMSO is the DMSO control, and mPpc is the positive control. IC50 values were determined from a 10-point dose response curve by fitting the percent inhibition against compound concentration using the GraphPad Prism software. The inhibition constant Ki was subsequently calculated according to the Nikolovska-Coleska's equation (Anal. Biochem., 2004, 332, 261),
[formula] • where [I]50 is the concentration of the free inhibitor at 50% inhibition, [L]50 is the concentration of the free labeled ligand at 50% inhibition, [P]0 is the concentration of the free protein at 0% inhibition, and Kd is the dissociation constant of the protein-ligand complex. See Table F. Caspase 3/7 Activity Assay

Sequence of MCL-1 (Q07820 whole entry): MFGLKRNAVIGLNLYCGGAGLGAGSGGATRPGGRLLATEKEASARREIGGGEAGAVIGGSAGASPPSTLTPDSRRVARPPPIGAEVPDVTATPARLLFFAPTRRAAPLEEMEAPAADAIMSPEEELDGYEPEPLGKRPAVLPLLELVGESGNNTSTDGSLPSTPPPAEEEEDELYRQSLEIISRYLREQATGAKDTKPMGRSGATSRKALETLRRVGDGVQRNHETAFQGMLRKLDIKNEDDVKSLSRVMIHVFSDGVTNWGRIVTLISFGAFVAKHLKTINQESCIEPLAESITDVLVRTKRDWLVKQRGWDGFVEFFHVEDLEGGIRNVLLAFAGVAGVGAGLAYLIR

For the compound `C=CCCCC(=O)NS(=O)(=O)c1ccc2c(c1)N(Cc1cnn(CC=C)c1)CC1(CCCc3cc(Cl)ccc31)CO2` (stereo not shown) [Example 10, N-[5-[(1-Allylpyrazol-4-yl)methyl]-6′-chloro-spiro[2,4-dihydro-1,5-benzoxazepine-3,1′-tetralin]-7-yl]sulfonylhex-5-enamide], in the assay on H929 cells, the half-inhibitory concentration (IC50) is > 1 µM. At MCL-1 (numeric values), the Ki was 1.43 µM.

Regarding `CC(=O)NS(=O)(=O)c1ccc2c(c1)N(CC1CCC1)C[C@@]1(CCCc3cc(Cl)ccc31)CO2` [Example 12, N-[(3S)-6′-Chloro-5-(cyclobutylmethyl)spiro[2,4-dihydro-1,5-benzoxazepine-3,1′-tetralin]-7-yl]sulfonylacetamide], in the assay with H929 cells, the half-inhibitory concentration (IC50) was > 1 µM. Further, the Ki at MCL-1 (numeric values) was found to be 0.0158 µM.

For the compound `O=C(NS(=O)(=O)c1ccc2c(c1)N(CC1CCC1)C[C@@]1(CCCc3cc(Cl)ccc31)CO2)C1CCCC1` [Example 13, N-[(3S)-6′-Chloro-5-(cyclobutylmethyl)spiro[2,4-dihydro-1,5-benzoxazepine-3,1′-tetralin]-7-yl]sulfonylcyclopentanecarboxamide], the IC50 in the assay with H929 cells was > 1 µM. For the same compound, the Ki on MCL-1 (numeric values) amounted to 0.022 µM.

As to `Cc1cc(CC(=O)NS(=O)(=O)c2ccc3c(c2)N(CC2CCC2)C[C@@]2(CCCc4cc(Cl)ccc42)CO3)nn1C` [Example 15, 2-(1,5-Dimethylpyrazol-3-yl)-N-[(3S)-6′-chloro-5-(cyclobutylmethyl)spiro[2,4-dihydro-1,5-benzoxazepine-3,1′-tetralin]-7-yl]sulfonyl-acetamide], the IC50 with H929 cells was > 1 µM. In addition, on MCL-1 (numeric values), the Ki came to 0.0087 µM.

Take `O=C(Cc1nccs1)NS(=O)(=O)c1ccc2c(c1)N(CC1CCC1)C[C@@]1(CCCc3cc(Cl)ccc31)CO2` [Example 16, N-[(3S)-6′-Chloro-5-(cyclobutylmethyl)spiro[2,4-dihydro-1,5-benzoxazepine-3,1′-tetralin]-7-yl]sulfonyl-2-thiazol-2-yl-acetamide]: in the assay with H929 cells, the 50% inhibitory concentration (IC50) is > 1 µM. Also, the Ki on MCL-1 (numeric values) was found to be 0.009 µM.

For `Cc1ccc(CC(=O)NS(=O)(=O)c2ccc3c(c2)N(CC2CCC2)C[C@@]2(CCCc4cc(Cl)ccc42)CO3)cn1` [Example 17, 2-(6-Methyl-3-pyridyl)-N-[(3S)-6′-chloro-5-(cyclobutylmethyl)spiro[2,4-dihydro-1,5-benzoxazepine-3,1′-tetralin]-7-yl]sulfonyl-acetamide], the half-inhibitory concentration (IC50) with H929 cells is > 1 µM. At MCL-1 (numeric values), the Ki was found to be 0.0074 µM.

For `O=C1Cc2cccc(c2)OC[C@@H]2CC[C@H]2CN2C[C@@]3(CCCc4cc(Cl)ccc43)COc3ccc(cc32)S(=O)(=O)N1` [Example 18, (3R,6R,24S)-6′-Chloro-17,17-dioxo-spiro[8,22-dioxa-17λ^6-thia-1,16-diazapentacyclo[16.7.2.1^9,13.0^3,6.0^21,26]octacosa-9(28),10,12,18(27),19,21(26)-hexaene-24,1′-tetralin]-15-one], in the assay with H929 cells, the half-maximal inhibitory concentration (IC50) is > 1 µM. The Ki at MCL-1 (numeric values) was determined as 0.0014 µM.

In the case of `O=C(Cc1ccncc1)NS(=O)(=O)c1ccc2c(c1)N(CC1CCC1)C[C@@]1(CCCc3cc(Cl)ccc31)CO2` [Example 19, 2-Pyridin-4-yl-N-[(3S)-6′-chloro-5-(cyclobutylmethyl)spiro[2,4-dihydro-1,5-benzoxazepine-3,1′-tetralin]-7-yl]sulfonyl-acetamide], the IC50 in the assay on H929 cells was > 1 µM. Besides, the Ki at MCL-1 (numeric values) was determined as 0.0093 µM.

Consider `CC(C)(C)OC(=O)N1CCC(C(=O)NS(=O)(=O)c2ccc3c(c2)N(CC2CCC2)CC2(CCCc4cc(Cl)ccc42)CO3)CC1` (stereo not shown) [Example 21, tert-Butyl 4-[[6′-chloro-5-(cyclobutylmethyl)spiro[2,4-dihydro-1,5-benzoxazepine-3,1′-tetralin]-7-yl]sulfonylcarbamoyl]piperidine-1-carboxylate], for which the half-inhibitory concentration (IC50) in the assay on H929 cells was > 1 µM. Also, on MCL-1 (numeric values), the Ki is 0.0533 µM.

Take `CC(C)(C)OC(=O)N1CCC(CC(=O)NS(=O)(=O)c2ccc3c(c2)N(CC2CCC2)CC2(CCCc4cc(Cl)ccc42)CO3)CC1` (stereo not shown) [Example 22, tert-Butyl 4-[2-[[6′-chloro-5-(cyclobutylmethyl)spiro[2,4-dihydro-1,5-benzoxazepine-3,1′-tetralin]-7-yl]sulfonylamino]-2-oxo-ethyl]piperidine-1-carboxylate]: the IC50 in the assay on H929 cells was > 1 µM. Moreover, the Ki at MCL-1 (numeric values) was 0.057 µM.

For `CC(C)(C)OC(=O)N1CCC[C@H](OC(=O)NS(=O)(=O)c2ccc3c(c2)N(CC2CCC2)CC2(CCCc4cc(Cl)ccc42)CO3)C1` (stereo partly drawn) [Example 23, tert-Butyl (3S)-3-[[6′-chloro-5-(cyclobutylmethyl)spiro[2,4-dihydro-1,5-benzoxazepine-3,1′-tetralin]-7-yl]sulfonylcarbamoyloxy]piperidine-1-carboxylate], the IC50 in the assay with H929 cells is > 1 µM. For the same compound, the Ki on MCL-1 (numeric values) is 0.0736 µM.

Consider `O=C(NS(=O)(=O)c1ccc2c(c1)N(CC1CCC1)CC1(CCCc3cc(Cl)ccc31)CO2)N1CCCC1` (stereo not shown) [Example 24, N-[6′-Chloro-5-(cyclobutylmethyl)spiro[2,4-dihydro-1,5-benzoxazepine-3,1′-tetralin]-7-yl]sulfonylpyrrolidine-1-carboxamide], for which the 50% inhibitory concentration (IC50) with H929 cells is > 1 µM. Besides, on MCL-1 (numeric values), the Ki amounted to 0.006 µM.

As to `O=C1Cc2cccc(c2)SC[C@@H]2CCC2CN2CC3(CCCc4cc(Cl)ccc43)COc3ccc(cc32)S(=O)(=O)N1` (stereo partly drawn) [Example 25, (1S,1′R,2′R)-6-Chloro-3,4-dihydro-2H-spiro[naphthalene-1,3′-5,10-dithia-9-aza-1(5,7)-benzo[b][1,4]oxazepina-6(1,3)-benzena-3(1,2)-cyclobutanacyclodecaphan]-8′-one 10′,10′-dioxide], the IC50 in the assay with H929 cells was > 1 µM. Also, the Ki at MCL-1 (numeric values) was found to be 0.009 µM.

On to `CO[C@H]1/C=C/CNCC2(CCC2)C(=O)NS(=O)(=O)c2ccc3c(c2)N(C[C@H]2CCC21)CC1(CCCc2cc(Cl)ccc21)CO3` (stereo partly drawn) [Example 26, (3R,6R,7R,8E,23S)-6′-Chloro-7-methoxy-13,13-(1,3-propylene)-16,16-dioxo-spiro[21-oxa-16-thia-1,11,15-triazatetracyclo[15.7.2.03,6.020,25]hexacosa[8,17(26),18,20(25)]tetraene-23,1′-tetralin]-14-one], for which the IC50 in the assay with H929 cells is > 1 µM. Besides, at MCL-1 (class symbols), the Ki lay within 0.001 to 0.1 µM.

On to `CO[C@@H]1/C=C/CN(C)CC2(CCC2)C(=O)NS(=O)(=O)c2ccc3c(c2)N(C[C@@H]2CC[C@H]21)C[C@@]1(CCCc2cc(Cl)ccc21)CO3` [Example 27, (3R,6R,7R,8E,23S)-6′-Chloro-7-methoxy-11-methyl-13,13-(1,3-propylene)-16,16-dioxo-spiro[21-oxa-16-thia-1,11,15-triazatetracyclo[15.7.2.03,6.020,25]hexacosa[8,17(26),18,20(25)]tetraene-23,1′-tetralin]-14-one], for which the IC50 in the assay with H929 cells was > 1 µM. Besides, the Ki at MCL-1 (class symbols) was 0.001 to 0.1 µM.

On to `CO[C@H]1/C=C/COC2(CC2)C(=O)NS(=O)(=O)c2ccc3c(c2)N(C[C@@H]2CC[C@H]21)C[C@@]1(CCCc2cc(Cl)ccc21)CO3` [Example 28, (3R,6R,7S,8E,22S)-6′-Chloro-7-methoxy-12,12-ethylene-15,15-dioxo-spiro[[11,20]dioxa-15-thia-1,14-diazatetracyclo[14.7.2.03,6.019,24]pentacosa[8,16(25),17,19(24)]tetraene-22,1′-tetralin]-13-one], for which the IC50 with H929 cells was > 1 µM. Further, on MCL-1 (class symbols), the Ki was < 0.001 µM.

Turning to `CO[C@@H]1/C=C/COC2(CC2)C(=O)NS(=O)(=O)c2ccc3c(c2)N(C[C@@H]2CC[C@H]21)C[C@@]1(CCCc2cc(Cl)ccc21)CO3` [Example 29, (3R,6R,7R,8E,22S)-6′-Chloro-7-methoxy-12,12-ethylene-15,15-dioxo-spiro[[11,20]dioxa-15-thia-1,14-diazatetracyclo[14.7.2.03,6.019,24]pentacosa[8,16(25),17,19(24)]tetraene-22,1′-tetralin]-13-one], the IC50 in the assay with H929 cells was < 1 µM. The Ki on MCL-1 (class symbols) was < 0.001 µM.
